Article PMC9486809, “Exploring the Surface of the Ectodomain of the PD-L1 Immune Checkpoint with Small-Molecule Fragments” (ACS Chemical Biology, 2022)

Target: T1, PD-L1 (Homo sapiens, UniProt Q9NZQ7)
Test: biochemical
Set-up: gene CD274
Conditions: read-out: DSF (°C)
Procedure: Fragments were screened in both techniques as singletons. […] The fragments were tested at a final concentration of 0.1 mM. […] DSF hits were defined as fragments, resulting in an increase or decrease in melting point of PD-L1 by at least 0.5 °C. […] Having the library in hand, we carried out screening using differential scanning fluorimetry and 1D NMR techniques. Previously, the fragment-based approach with a large library of compounds (>13 000) was tested on the PD-L1 V1 domain.[33] […] Therefore, instead of using a large fragment library, we assembled a focused library of fragments containing the biphenyl core extracted from known inhibitors. The obtained fragments were decorated with different substituents to test how these variations will affect the binding of biphenyl. The expression and purification protocol relate to work on PD-L1-short published earlier by us. Briefly, Escherichia coli strain BL21 (DE3) was transformed with a pET-21b plasmid carrying the PD-L1-long gene (amino acids 18–239). The bacteria were cultured in LB at 37 °C until OD600 nm of 0.8 when the recombinant protein production was induced with 1 mM IPTG. The protein expression was carried out at 37 °C for 5 h. Next, bacteria cells were harvested, and the pellet was frozen at −20 °C. […]

T1 sequence (Q9NZQ7 18-239): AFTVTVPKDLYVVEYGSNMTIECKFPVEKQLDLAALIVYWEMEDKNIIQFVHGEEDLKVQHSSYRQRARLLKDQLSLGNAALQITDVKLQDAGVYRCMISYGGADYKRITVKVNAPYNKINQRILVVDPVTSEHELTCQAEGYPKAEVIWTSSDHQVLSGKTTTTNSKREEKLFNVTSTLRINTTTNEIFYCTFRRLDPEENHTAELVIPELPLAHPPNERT

| Structure (SMILES) | ΔTm at 100 µM |
| --- | --- |
| Cc1c(COc2cc(OCc3cccc(C#N)c3)c(CN3C[C@H](O)C[C@@H]3C(=O)O)cc2Cl)cccc1-c1ccc2c(c1)OCCO2 [BMS-1166] | 2.7 °C |

Target: T1, PD-L1
Test: 1H NMR; KD stated (data not shown)
Type: binding
Set-up: gene CD274; ectodomain, PD-L1-long (amino acids 18–239)
Conditions: cited from earlier work

| Structure (SMILES) | Kd |
| --- | --- |
| CN1CCOc2cc(C#N)ccc21 [STD4] | 2.21 mM |

Target: T1, PD-L1
Test: biochemical
Set-up: gene CD274; ectodomain, PD-L1-long (amino acids 18–239); Differential scanning fluorimetry, melting temperature shift of PD-L1 ectodomain (PD-L1-long)
Conditions: read-out: DSF (°C)
Remark: another data set of the same source
Procedure: Fragments were screened in both techniques as singletons. […] The fragments were tested at a final concentration of 0.1 mM. […] DSF hits were defined as fragments, resulting in an increase or decrease in melting point of PD-L1 by at least 0.5 °C. […] Having the library in hand, we carried out screening using differential scanning fluorimetry and 1D NMR techniques. Previously, the fragment-based approach with a large library of compounds (>13 000) was tested on the PD-L1 V1 domain.[33] […] Therefore, instead of using a large fragment library, we assembled a focused library of fragments containing the biphenyl core extracted from known inhibitors. The obtained fragments were decorated with different substituents to test how these variations will affect the binding of biphenyl. The expression and purification protocol relate to work on PD-L1-short published earlier by us. Briefly, Escherichia coli strain BL21 (DE3) was transformed with a pET-21b plasmid carrying the PD-L1-long gene (amino acids 18–239). The bacteria were cultured in LB at 37 °C until OD600 nm of 0.8 when the recombinant protein production was induced with 1 mM IPTG. The protein expression was carried out at 37 °C for 5 h. Next, bacteria cells were harvested, and the pellet was frozen at −20 °C. […] Inclusion bodies were collected by centrifugation, suspended in 1× PBS, and then sonicated to finally collect them again by centrifugation. Then, the inclusion bodies were washed twice with 50 mM Tris-HCl, pH 8.0, containing 200 mM NaCl, 10 mM EDTA, 10 mM 2- mercaptoethanol, and 0.5% Triton X-100, followed by a single wash with the same buffer without Triton X-100.

| Structure (SMILES) | ΔTm at 100 µM |
| --- | --- |
| Cc1c(N)cccc1-c1ccc(C#N)cc1 [TAH29] | 0.1 °C |
| Nc1c(Br)cccc1-c1ccc(CO)cc1 [TAH44] | 0.5 °C |
| CNc1cccc(-c2ccc3c(c2)OCCO3)c1 [TAH56] | 0.1 °C |
| Oc1cccc(-c2cccc(Br)c2)c1 [TAH11] | 0.1 °C |
| Cc1c(N)cccc1-c1cccc(N)c1C [TAH35] | -1.2 °C |
| Cc1c(-c2cccc([N+](=O)[O-])c2C)cccc1[N+](=O)[O-] [TAH34] | 0.3 °C |
| OCc1cccc(-c2ccc3c(c2)OCCO3)c1Cl [TAH4] | 0.5 °C |
| Nc1c(CO)cccc1-c1ccncc1 [TAH57] | 0.1 °C |
| Cc1c(-c2ccc(CO)cc2)cccc1-c1ccc(CO)cc1 [TAH50] | 0.3 °C |
| Nc1c(C(=O)O)cccc1-c1ccccc1 [TAH7] | 0.3 °C |
| Cc1c(N)cccc1-c1ccccc1 [TAH39] | 0.3 °C |
| O=C(O)c1cccc(-c2ccccc2)c1Br [TAH40] | 0.3 °C |
| Cc1c(/C=C/C#N)cccc1-c1ccc2c(c1)OCCO2 [TAH38] | 0.9 °C |
| Cc1ccc(-c2ccc3c(c2)OCCO3)c(N)c1 [TAH53] | 0.7 °C |
| COc1ccc(-c2cccc(CO)c2N)cc1 [TAH58] | 0.1 °C |
| Cc1cc(Br)cc(-c2ccc3c(c2)OCCO3)c1 [TAH60] | 0.3 °C |
| Cc1c(C#N)cccc1-c1cccc(C#N)c1C [TAH37] | 0.1 °C |

| Structure (SMILES) | ΔTm at 100 µM |
| --- | --- |
| COC(=O)c1cncc(-c2cccc(CO)c2C)c1 [TAH2] | 0.1 °C |
| Nc1c(Br)cccc1-c1ccc2c(c1)OCCO2 [TAH59] | 0.3 °C |
| Cc1c(N)cccc1-c1ccc2c(c1)OCCO2 [TAH16] | 0.5 °C |
| Cc1c(CO)cccc1-c1cccc2c1OCCN2C [TAH61] | -1.1 °C |
| OCc1cccc(-c2cccnc2)c1Cl [TAH5] | 0.3 °C |
| COC(=O)c1cccc(-c2ccccc2)c1N [TAH8] | 0.3 °C |
| COc1cccc(-c2cccc(O)c2)c1 [TAH14] | 0.5 °C |
| Oc1cccc(-c2cccc(F)c2)c1 [TAH41] | 1.1 °C |
| O=C1CCc2cc(-c3ccc4c(c3)OCCO4)ccc21 [TAH30] | 0.1 °C |
| Cc1c(CO)cccc1-c1cccc(CO)c1Br [TAH3] | 0.3 °C |
| Nc1c(-c2ccc3c(c2)OCCO3)cccc1-c1ccc2c(c1)OCCO2 [TAH46] | 0.5 °C |
| Cc1c(N)cccc1-c1ccccn1 [TAH28] | 0.3 °C |
| COC(=O)c1cccc(-c2ccccc2)c1Br [TAH9] | 0.5 °C |
| Cc1cccc(N)c1-c1ccc2c(c1)OCCO2 [TAH55] | 0.3 °C |
| Nc1c(CO)cccc1-c1ccc2c(c1)OCCO2 [TAH6] | 0.3 °C |
| Cc1c(-c2ccc3c(c2)OCCO3)cccc1N1CCCCC1=O [TAH17] | 0.3 °C |

Target: T1, PD-L1
Test: 1H-15N HMQC NMR, w-AIDA-NMR KD, 1H NMR
Type: binding
Set-up: gene CD274; ectodomain, PD-L1-long (amino acids 18–239); PD-L1-short in 1H-15N HMQC
Conditions: not given

| Structure (SMILES) | Kd |
| --- | --- |
| OCc1cccc(-c2ccc3c(c2)OCCO3)c1Cl [TAH4] | ~40 mM |

Target: T1, PD-L1
Test: w-AIDA-NMR KD, 1H-15N HMQC NMR, 1H NMR, DSF
Type: binding
Set-up: gene CD274; ectodomain, PD-L1-long (amino acids 18–239); PD-L1-short in 1H-15N HMQC
Conditions: not given

| Structure (SMILES) | Kd |
| --- | --- |
| Cc1c(N)cccc1-c1cccc(N)c1C [TAH35] | ~20 mM |
